The source of these data is patent publication US8497376B2, “Inhibitors of c-fms kinase” (Janssen Pharmaceutica N.V., priority 2007, dated 2013).

In data set [1] the test system is mouse bone-marrow derived macrophages. Nature of the data set: CSF-1-driven mouse bone-marrow derived macrophages assay (BrDU incorporation). As to conditions: Mus musculus, BMDM, CSF-1-driven proliferation, 30 hrs culture. It is filed as cell-based. As for the experimental part: Macrophages were derived by culturing mouse bone marrow in alpha-MEM supplemented with 10% FCS and 50 ng/ml recombinant mouse CSF-1 in bacteriologic dishes. On the sixth day, macrophages were detached from dishes, washed, and resuspended to 0.05 million cells/ml in alpha-MEM containing 10% FCS. One hundred ul of cell suspension were distributed per well into 96 well culture plates. Wells were further supplemented with the addition of 50 ul media containing 15 ng/ml CSF-1, 3 uM Indomethacin, and 3× of a dilution series of test compounds. The cells were cultured for 30 hrs at 37 degrees and 5% CO2. During the final six hours, cultures were supplemented with an additional 30 ul of media containing a 1:500 dilution of bromodeoxyuridine (BrDU). At the end of the culture period, the plates were spun at 1000 RPM for 1 minute and 130 ul of media was removed with a pipet and replaced with 150 ul of fixative solution for 1 hour@room temperature. The fixative was then dispelled from the plates and the plates allowed to air dry. Incorporation of BrDU into the fixed, dried cells was quantified using a specific ELISA.

A further data set concerns the target c-fms (Homo sapiens (Human), UniProt P07333). Briefly: Autophosphorylation fluorescence polarization competition immunoassay for c-fms inhibition. Type of data set: biochemical. As to conditions: 10 nM c-fms, 1 mM ATP; average of three independent measurements. As for the experimental part:
The assay buffer used was 100 mM 4-(2-hydroxyethyl)piperazine1-ethanesulfonic acid (HEPES), pH 7.5, 1 mM 1,4-dithio-DL-threitol (DTT), 0.01% (v/v) Tween-20. Compounds were diluted in assay buffer containing 4% dimethylsulfoxide (DMSO) just prior to the assay. […] The kinase reaction was initiated by adding 2 μL of 5 mM ATP (Sigma) in assay buffer. The final concentrations in the assay were 10 nM c-fms, 1 mM ATP, 5 mM MgCl2, 2% DMSO. Control reactions were ran in each plate: in positive and negative control wells, assay buffer (made 4% in DMSO) was substituted for the compound; in addition, positive control wells received 1.2 μL of 50 mM ethylenediaminetetraaceticacid (EDTA). The plates were incubated at room temperature for 45 min. At the end of the incubation, the reaction was quenched with 1.2 μL of 50 mM EDTA (EDTA was not added to the positive control wells at this point; see above). Following a 5-min incubation, each well received 10 μL of a 1:1:3 mixture of anti-phosphotyrosine antibody, 10×, PTK green tracer, 10× (vortexed), FP dilution buffer, respectively (all from PanVera, cat. # P2837). The plate was covered, incubated for 30 min at room temperature and the fluorescence polarization was read on the Analyst. The instrument settings were: 485 nm excitation filter; 530 nm emission filter; Z height: middle of well; G factor: 0.93. […] The reported IC50 values are averages of three independent measurements.
On the technique in general: Fluorescence polarisation rises when a labelled molecule tumbles more slowly, as on binding a larger partner.

Data set [2] deals with streptococcal cell wall (SCW) model of arthritis in rats. Nature of the data set: SCW arthritis in rats (chronic phase, therapeutic dosing). It is filed as in vivo, rat. As to conditions: for Number of steps taken using hind limbs in a thirty second observation period: average of three rats. An excerpt:
Purpose: A polyarthritis occurs in female Lewis rats following i.p. administration of streptococcal cell wall (SCW) components. The model has an acute non-erosive phase (days 3-7) that is complement and neutrophil dependent and which resolves. A chronic erosive phase begins at about day ten and is dependent on the development of specific T cell immunity to SCW, and possibly to self-antigens. The SCW-induced model has been used less frequently for pharmaceutical testing than the adjuvant-induced or collagen-induced models of arthritis, but each model predicts accurately the anti-inflammatory potential of TNF-inhibitors. The chronic phase of the SCW model is macrophage dependent.
Method: Female Lewis rats (80-100 gm each) were purchased from Charles River. Streptococcal cell wall peptidoglycan-polysaccharide polymers (PG-PS 10S) were purchased from BD (Cat#210866). PG-PS 10S was vortexed for 30 seconds to thoroughly mix the material and sonicated at low energy levels (level 6) for 3 min with a probe type sonicator prior to injection. On day 0, sixty rats were anesthetized using isoflurane, and injected i.p. with 15 μg of rhamnose/gram body weight (BW) in the lower left quadrant of the abdomen. Ten rats were treated in a similar manner with sterile saline.
(§1) Chronic, T-cell dependent, erosive arthritis was severe by day 20 at which time twice daily oral dosing was commenced until sacrificed on day 32 to determine if the compound of Example 15 (hereinafter, Compound A) can reverse established disease.
(§2) Compound A was formulated in 5% solutol, 5% ethanol, 90% water. The dose volume was 5 ml/kg.
Left and right hind ankles of each rat were measured with calipers every day for the first six days (post-injection) and then at least every two or three days for the remainder of the study. Ankles were assigned a clinical score based on erythema and swelling as follows: 1=ankle only; 2=ankle and proximal half of tarsal joint; 3=ankle and entire tarsal joint; 4=involvement of the entire paw including digits. Animal scores represented the sum of the two hind paws.
Disease reversal was accompanied by restoration of function. To assess function, three representative rats per group were videotaped for thirty seconds on days 19 and 32, and steps taken with hind limbs were counted and reported in Table 3. On day 19 following SCW, rats ambulated primarily using front paws. Hind paws were nearly immobilized.

A short description of another data set: in vivo. As to conditions: Lewis, rat, po. How it is done: as §1, §2
Exposure: Two hours following the last dose of 3, 10 and 20 mpk, plasma levels of Compound A were 247±22, 802±35, and 1475±70 ng/ml, respectively (mean±SEM).

As usually defined, the IC50 is the concentration at which inhibition is half-maximal. The low end stands for greater potency in that assay, the high end for weaker potency in that assay.

Chain of c-fms (P07333 20-972): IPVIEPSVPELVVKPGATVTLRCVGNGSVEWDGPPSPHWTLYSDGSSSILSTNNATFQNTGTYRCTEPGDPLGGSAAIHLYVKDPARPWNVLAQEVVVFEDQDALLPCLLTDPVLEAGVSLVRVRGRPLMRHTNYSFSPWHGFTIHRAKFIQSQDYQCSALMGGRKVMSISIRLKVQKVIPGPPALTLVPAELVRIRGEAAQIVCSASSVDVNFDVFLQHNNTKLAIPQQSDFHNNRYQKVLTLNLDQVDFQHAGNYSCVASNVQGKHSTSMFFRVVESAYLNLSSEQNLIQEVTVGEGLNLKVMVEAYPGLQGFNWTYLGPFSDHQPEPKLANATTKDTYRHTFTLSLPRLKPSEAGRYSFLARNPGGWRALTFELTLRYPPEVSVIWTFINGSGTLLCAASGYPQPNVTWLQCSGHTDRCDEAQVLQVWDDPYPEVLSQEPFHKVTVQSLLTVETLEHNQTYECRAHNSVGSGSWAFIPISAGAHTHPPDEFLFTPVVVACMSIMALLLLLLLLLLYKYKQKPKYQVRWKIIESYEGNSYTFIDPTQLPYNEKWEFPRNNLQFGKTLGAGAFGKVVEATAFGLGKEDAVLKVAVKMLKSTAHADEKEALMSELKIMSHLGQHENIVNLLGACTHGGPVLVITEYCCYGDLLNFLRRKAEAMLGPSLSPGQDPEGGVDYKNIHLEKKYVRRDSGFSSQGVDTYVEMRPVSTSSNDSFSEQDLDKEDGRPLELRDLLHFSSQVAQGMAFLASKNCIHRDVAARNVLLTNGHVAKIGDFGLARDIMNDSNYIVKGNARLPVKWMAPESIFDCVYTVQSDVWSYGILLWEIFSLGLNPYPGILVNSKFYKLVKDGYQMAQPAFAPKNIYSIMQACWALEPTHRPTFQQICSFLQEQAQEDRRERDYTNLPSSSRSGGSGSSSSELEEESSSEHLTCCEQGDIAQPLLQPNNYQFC

Take `CC1(C)CC=C(c2nc([C@H]3C[C@@]4(C)O[C@@](C)(C3)[C@@H]3OC(C)(C)O[C@@H]34)ccc2NC(=O)c2nc(C#N)c[nH]2)CC1` [Example 17, 4-Cyano-1H-imidazole-2-carboxylic acid[6-[(3-exo)-6-exo,7-exo-(isopropylidinedioxy)-1,5-dimethyl-8-oxa-bicyclo[3.2.1]oct-3-yl]-2-(4,4-dimethyl-cyclohex-1-enyl)-pyridin-3-yl]-amide]: the figures for the IC50 (in data set [1]; on c-fms) were 37 nM and 4.6 nM, respectively.
As for `COC(=O)N1[C@@]2(C)C=C[C@]1(C)C[C@@](O)(c1ccc(NC(=O)c3nc(C#N)c[nH]3)c(C3=CCC(C)(C)CC3)c1)C2` [Example 10, 3-(3-exo)-[4-[(4-Cyano-1H-imidazole-2-carbonyl)-amino]-3-(4,4dimethyl-cyclohex-1-enyl)-phenyl]-(3-exo)-3-hydroxy-1,5-dimethyl-8-aza-bicyclo[3.2.1]oct-6-ene-8-carboxylic acid methyl ester], the IC50 in data set [1] stood at 40 nM; at c-fms, 3.5 nM.
The matching figures for `CC1(C)CC=C(c2cc([C@@]3(O)C[C@]4(C)C=C[C@](C)(C3)O4)ccc2NC(=O)c2nc(C#N)c[nH]2)CC1` [Example 9, 4-Cyano-1H-imidazole-2-carboxylic acid[2-(4,4-dimethyl-cyclohex-1-enyl)-4-((3-exo)-3-hydroxy-1,5-dimethyl-8-oxa-bicyclo[3.2.1]oct-6-en-3-yl)-phenyl]-amide]: 4.8 nM and 1.1 nM.
Turning to `CC1(C)CC(c2ccc(NC(=O)c3nc(C#N)c[nH]3)c(C3=CCCCC3)n2)CC(C)(C)O1` [Example 16, 4-Cyano-1H-imidazole-2-carboxylic acid[2-cyclohex-1-enyl-6-(2,2,6,6-tetramethyl-tetrahydro-pyran-4-yl)-pyridin-3-yl]-amide], the IC50 was 8.2 nM in data set [1] and 1.4 nM at c-fms.
As for `COC[C@@]12CC[C@@](COC)(C[C@@H](c3ccc(NC(=O)c4nc(C#N)c[nH]4)c(C4=CCC(C)(C)CC4)c3)C1)O2` [Example 6, 4-Cyano-1H-imidazole-2-carboxylic acid[4-[(3-endo)-1,5-bis-methoxymethyl-8-oxa-bicyclo[3.2.1]oct-3-yl]-2-(4,4-dimethyl-cyclohex-1-enyl)-phenyl]-amide], the IC50 in data set [1] was 5 nM; on c-fms, 2.7 nM.
In turn, `CC1(C)CC=C(c2nc(C3CC(C)(C)OC(C)(C)C3)ccc2NC(=O)c2nc(C#N)c[nH]2)CC1` [Example 15, 4-Cyano-1H-imidazole-2-carboxylic acid[2-(4,4-dimethyl-cyclohex-1-enyl)-6-(2,2,6,6-tetramethyl-tetrahydro-pyran-4-yl)-pyridin-3-yl]-amide] registered an IC50 in data set [1] of 6.1 nM. The “Number of steps taken using hind limbs in a thirty second observation period” value in data set [2] (Day 19 (before treatment), 3 mg/kg group) is 1.7; in data set [2] (Day 19 (before treatment), 10 mg/kg group) it was 1.3; in data set [2] (Day 19 (before treatment), 20 mg/kg group), 1.3; in data set [2] (Day 32, 3 mg/kg oral b.i.d.), 7.7; in data set [2] (Day 32, 10 mg/kg oral b.i.d.), 7.3; in data set [2] (Day 32, 20 mg/kg oral b.i.d.), 6. Further, the “use of hind limbs (function)” value in data set [2] (day 32, rats treated with Compound A) is “used hind limbs in a normal fashion”. For the same molecule, the “paw swelling (caliper measurements of paw thickness and visual scores)” value in data set [2] (dosing p.o. b.i.d. initiated on day 20 after disease was severe, 3, 10, 20 mpk) is reported as “caused a reversal of paw swelling”. In addition, the concentration at 2 h in “in vivo” (3 mg/kg) was found to be 247 ± 22 ng/mL; in the data set “in vivo” (10 mg/kg), 802 ± 35 ng/mL; in “in vivo” (20 mg/kg), 1480 ± 70 ng/mL.
`C[C@@H]1C2C=C[C@@H](O2)[C@H](C)[C@@]1(O)c1ccc(NC(=O)c2nc(C#N)c[nH]2)c(C2=CCC(C)(C)CC2)c1` [Example 28]: the IC50 in data set [1] stood at 69 nM; on c-fms it was 16 nM.
The matching figures for `CC1(C)CC=C(c2nc(C3CC(C)(C)S(=O)(=O)C(C)(C)C3)ccc2NC(=O)c2nc(C#N)c[nH]2)CC1` [Example 21, 4-Cyano-1H-imidazole-2-carboxylic acid[2-(4,4-dimethyl-cyclohex-1-enyl)-6-(2,2,6,6-tetramethyl-1,1-dioxo-hexahydro-1λ^6-thiopyran-4-yl)-pyridin-3-yl]-amide]: 18 nM and 8.9 nM.
The matching figures for `CC1(C)CC=C(c2cc([C@@]3(O)C[C@]4(CO)CC[C@](CO)(C3)O4)ccc2NC(=O)c2nc(C#N)c[nH]2)CC1` [Example 8, 4-Cyano-1H-imidazole-2-carboxylic acid[2-(4,4-dimethyl-cyclohex-1-enyl)-4-[(3-exo)-3-hydroxy-1,5-bis-hydroxymethyl-8-oxa-bicyclo[3.2.1]oct-3-yl]-phenyl]-amide]: 41 nM and 0.42 nM.
On to `CC1(C)CC=C(c2cc([C@@]3(O)C[C@@]4(C)O[C@@](C)(C3)[C@@H]3OC(C)(C)O[C@@H]34)ccc2NC(=O)c2nc(C#N)c[nH]2)CC1` [Example 11, 4-Cyano-1H-imidazole-2-carboxylic acid[2-(4,4-dimethyl-cyclohex-1-enyl)-4-[(3-exo)-3-hydroxy-1,5-dimethyl-6-exo,7-exo-(dimethylmethylenedioxy)-bicyclo[3.2.1]oct-3-yl]-phenyl]-amide], for which the IC50 in data set [1] was found to be 2.5 nM; at c-fms, 1.8 nM.
The matching figures for `COC[C@@]12CC[C@@](COC)(C[C@H](c3ccc(NC(=O)c4nc(C#N)c[nH]4)c(C4=CCC(C)(C)CC4)c3)C1)O2` [Example 7, 4-Cyano-1H-imidazole-2-carboxylic acid[4-((3-exo)-1,5-bis-methoxymethyl-8-oxa-bicyclo[3.2.1]oct-3-yl)-2-(4,4-dimethyl-cyclohex-1-enyl)-phenyl]-amide]: 3.3 nM and 2 nM.
On to `CC1(C)CC=C(c2cc([C@H]3C[C@]4(CO)CC[C@](CO)(C3)O4)ccc2NC(=O)c2nc(C#N)c[nH]2)CC1` [Example 4, 4-Cyano-1H-imidazole-2-carboxylic acid[4-[(3-exo)-1,5-bis-hydroxymethyl-8-oxa-bicyclo[3.2.1]oct-3-yl]-2-(4,4-dimethyl-cyclohex-1-enyl)-phenyl]-amide], for which the figures for the IC50 (in data set [1]; at c-fms) were 6.6 nM and 0.72 nM, respectively.
